The values below come from PMC6150693 (Journal of the American Chemical Society, 2017).

Molecules are shown by their SMILES.

The test deals with T1, SBD2 (Lactococcus lactis, UniProt Q9CES5).
T1 sequence (Q9CES5 253-484 limits assumed): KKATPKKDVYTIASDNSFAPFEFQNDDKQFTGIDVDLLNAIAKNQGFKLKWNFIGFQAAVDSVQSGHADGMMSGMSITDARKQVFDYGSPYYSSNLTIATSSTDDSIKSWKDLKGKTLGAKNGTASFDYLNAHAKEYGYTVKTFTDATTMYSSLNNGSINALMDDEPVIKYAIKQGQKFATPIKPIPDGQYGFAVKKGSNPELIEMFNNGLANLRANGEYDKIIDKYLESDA
As to the kind of experiment: single-molecule ClyA nanopore current, relative closed population. It is filed as binding.

On to `NC(=O)CC[C@H](N)C(=O)O` [glutamine], for which the Kd (commonly a measure of binding affinity in units of concentration) is 830 ± 100 nM.
